Article PMC8838532 (Molecules, 2022)
Like-named read-outs stand apart in the source and are kept apart here. Values belong to the compound of their own block, whether it stands above or below them.

Legend:
A549 cells [1] = assay: Resazurin cytotoxicity assay in A549 cells; format: cell-based, human; conditions: for fold more potent than imatinib / IC50: A549 cells; for fold more potent than imatinib: IC50 versus imatinib; for IC50: Homo sapiens, 48 h, resazurin, concentration-response curve; for SI WSS-1/A549: SI = IC50 (WSS-1)/IC50 (A549)
Procedure: (§1) The A549 cell line (CCL-185™; ATCC, Manassas, VA, USA), from human lung carcinoma epithelium, and the K562 cell line (Rio de Janeiro Cell Bank, BCRJ: 0126, Rio de Janeiro, RJ, Brazil), a human chronic myeloid cell line expressing the BCR-ABL1 protein, were grown in RPMI-1640 culture medium (Merck, Darmstadt, Hesse, Germany) supplemented with 10% heat-inactivated fetal bovine serum (FBS; Vitrocell, Campinas, SP, Brazil). WSS-1 [WS-1] (ATCC CRL-2029™) human […] cells were grown in high-glucose DMEM (Vitrocell) supplemented with 10% FBS (Vitrocell). All cell lines were maintained at 37 °C under 5% CO2, in a water jacket CO2 incubator (Forma Series II incubator, Thermo Fisher Scientific, Waltham, MA, USA).
(§2) Briefly, cells were seeded in 96-well microplates (2 × 10^4 cells/well for K562 cells and 5 × 10^4 cells/well for A549 and WSS-1 cells) and incubated with 10 µM of the test compounds for 48 h at 37 °C. A resazurin (Merck, Darmstadt, Hesse, Germany) solution (final concentration: 0.01 mg/mL) was added to each well before the end of the experiment, at 1 h before concluding for K562 cells, and 2 h before concluding for A549 and WSS-1 cells. Fluorescence readings (λex = 560 nm, […]) were carried out immediately after the addition of resazurin (t0) and at the end of the experiment (tn) with a FlexStation 3 Benchtop multimode microplate reader (Molecular Devices, San Jose, CA, USA). Resorufin fluorescence was calculated by subtracting the fluorescence measured at t0 from that at tn. Cell viability was expressed as percentages, considering the mean resorufin fluorescence of the control wells (cells incubated with only DMSO) to be 100%. Tests were performed in triplicate. The same assay was carried out to generate 8–10 points concentration-response curves (300 µM top compound concentration).
(§3) IC50 values were calculated by a four-parameter logistic curve function, using GraphPad Prism version 6.01 for Windows (GraphPad Software, San Diego, CA, USA, www.graphpad.com) (accessed on 29 December 2021).

WSS-1 cells = assay: Resazurin cytotoxicity assay in WSS-1 cells; format: cell-based; conditions: WSS-1 healthy human cells, 48 h
Procedure: as §1, §2, §3

K562 cells [2] = conditions: 150 μM, Figure 1; cited from earlier work
A549 cells [3] = conditions: 150 μM, cited from earlier work; for % viability reduction A549 cells: Figure 1
K562 cells [4] = conditions: Figure 1; cited from earlier work
K562 cells [5] = test system: K562 cells; set-up: method as in PMID 30055465; conditions: cited from earlier work
K562 cells [6] = assay: Resazurin cytotoxicity assay in K562 cells; conditions: for viability at 10 µM: read-out: percentage of viability

SMILES: Cc1ccc(-n2cc(CN3C(=O)C(=O)c4cc(Cl)ccc43)nn2)cc1Nc1nccc(-c2cccnc2)n1 [2c, 5-chloro-1-((1-(4-methyl-3-((4-(pyridin-3-yl)pyrimidin-2-yl)amino)phenyl)-1H-1,2,3-triazol-4 yl)methyl)indoline-2,3-dione]
melting point: 257 to 260 °C

SMILES: CC(=O)NCC(=O)Nc1ccc(C)c(Nc2nccc(-c3cccnc3)n2)c1 [compound 8]
% viability reduction K562 cells (K562 cells [2]): 66.3%
% viability reduction A549 cells (A549 cells [3]): 61.5%
cell viability (A549 cells [3]): 38.5%

SMILES: Cc1ccc(-c2cn(-c3ccc(CN4CCN(C)CC4)c(C(F)(F)F)c3)nn2)cc1Nc1nccc(-c2cccnc2)n1 [compound 7]
IC50 (K562 cells [4]): 0.03 µM

SMILES: CCc1c2c(nc3ccc(OC(=O)N4CCC(N5CCCCC5)CC4)cc13)-c1cc3c(c(=O)n1C2)COC(=O)[C@]3(O)CC [irinotecan]
IC50 (K562 cells [5]): 0.07 µM

SMILES: Cc1ccc2c(c1)C(=O)C(=O)N2Cc1cn(-c2ccc(C)c(Nc3nccc(-c4cccnc4)n3)c2)nn1 [2b, 5-methyl-1-((1-(4-methyl-3-((4-(pyridin-3-yl)pyrimidin-2-yl)amino)phenyl)-1H-1,2,3-triazol-4 yl)methyl)indoline-2,3-dione]
melting point: 235 to 237 °C

SMILES: Cc1ccc(-n2cc(CN3C(=O)C(=O)c4ccccc43)nn2)cc1Nc1nccc(-c2cccnc2)n1 [compound 2a, 1-((1-(4-methyl-3-((4-(pyridin-3-yl)pyrimidin-2-yl)amino)phenyl)-1H-1,2,3-triazol-4-yl)methyl)indoline-2,3-dione]
melting point: 237 to 239 °C

SMILES: Cc1ccc(-n2cc(CN3C(=O)C(=O)c4cc(F)ccc43)nn2)cc1Nc1nccc(-c2cccnc2)n1 [2e, 5-fluoro-1-((1-(4-methyl-3-((4-(pyridin-3-yl)pyrimidin-2-yl)amino)phenyl)-1H-1,2,3-triazol-4 yl)methyl)indoline-2,3-dione]
melting point: 251 to 253 °C

SMILES: Cc1ccc(-n2cc(CN3C(=O)C(=O)c4cc(Br)ccc43)nn2)cc1Nc1nccc(-c2cccnc2)n1 [2d, 5-bromo-1-((1-(4-methyl-3-((4-(pyridin-3-yl)pyrimidin-2-yl)amino)phenyl)-1H-1,2,3-triazol-4 yl)methyl)indoline-2,3-dione]
melting point: 267 to 270 °C

SMILES: COc1ccc(CN2C(=O)C(=O)c3cc(-c4ccc(OC)cc4)ccc32)cc1 [compound 4]
IC50 (K562 cells [5]): 0.03 µM

SMILES: Cc1ccc(NC(=O)c2ccc(CN3CCN(C)CC3)cc2)cc1Nc1nccc(-c2cccnc2)n1 [Imatinib, imatinib]
% viability reduction K562 cells (K562 cells [2]): 61.7%
% viability reduction A549 cells (A549 cells [3]): 61.2%
viability at 10 µM (K562 cells [6]; Homo sapiens, K562, 48 h): 30.7%

Continued, in another order:

melting point: 218 to 219 °C
SMILES: Cc1ccc(-n2cc(CN3C(=O)C(F)(F)c4cc(Br)ccc43)nn2)cc1Nc1nccc(-c2cccnc2)n1 [3d, 5-bromo-3.3-difluoro-1-((1-(4-methyl-3-((4-(pyridin-3-yl)pyrimidin-2-yl)amino)phenyl)-1H-1,2,3-triazol-4-yl)methyl)indoline-2-one]
fold more potent than imatinib (A549 cells [1]): approximately 10 fold
IC50 (A549 cells [1]): 7.3 µM
SI WSS-1/A549 (A549 cells [1]): 2.5
IC50 (WSS-1 cells): 18.6 µM

melting point: 222 °C
SMILES: Cc1ccc(-n2cc(CN3C(=O)C(F)(F)c4ccccc43)nn2)cc1Nc1nccc(-c2cccnc2)n1 [compound 3a, 3.3-difluoro-1-((1-(4-methyl-3-((4-(pyridin-3-yl)pyrimidin-2-yl)amino)phenyl)-1H-1,2,3-triazole-4-yl)methyl)indoline-2-one]
fold more potent than imatinib (A549 cells [1]): approximately 10 fold
IC50 (A549 cells [1]): 7.2 µM
SI WSS-1/A549 (A549 cells [1]): 1.6
IC50 (WSS-1 cells): 11.6 µM

melting point: 223 to 224 °C
SMILES: Cc1ccc(-n2cc(CN3C(=O)C(F)(F)c4cc(Cl)ccc43)nn2)cc1Nc1nccc(-c2cccnc2)n1 [3c, 5-chloro-3,3-difluoro-1-((1-(4-methyl-3-((4-(pyridin-3-yl)pyrimidin-2-yl)amino)phenyl)-1H-1,2,3-triazol-4-yl)methyl)indoline-2-one]
fold more potent than imatinib (A549 cells [1]): approximately 10 fold
IC50 (A549 cells [1]): 6.4 µM
SI WSS-1/A549 (A549 cells [1]): 2.1
IC50 (WSS-1 cells): 13.5 µM

melting point: 102 to 104 °C
SMILES: Cc1ccc2c(c1)C(F)(F)C(=O)N2Cc1cn(-c2ccc(C)c(Nc3nccc(-c4cccnc4)n3)c2)nn1 [compound 3b, 3,3-difluoro-5-methyl-1-((1-(4-methyl-3-((4-(pyridin-3-yl)pyrimidin-2-yl)amino)phenyl)-1H-1,2,3-triazol-4-yl)methyl)indolin-2-one]
IC50 (WSS-1 cells): 69.3 µM
IC50 (K562 cells [6]; Homo sapiens, K562, 48 h, read-out: IC50 K562): 35.8 µM
viability at 10 µM (K562 cells [6]; Homo sapiens, K562, 48 h): 57.5%
SI WSS-1/K562 (K562 cells [6]; SI = IC50 (WSS-1)/IC50 (K562)): 1.9
